Experimental data published in patent US7307095B2, “Inhibitors of cathepsin S” (IRM LLC, priority 2003, dated 2007).

Tests used:
Assay type in all cases: biochemical
Cathepsin K = target: T1, Cathepsin K (Homo sapiens, UniProt P43235); test: Cathepsin K inhibition, fluorogenic peptide substrate kinetic assay (selectivity ratio vs cathepsin S); settings: ratio of cathepsin K inhibition constant to cathepsin S inhibition constant
T1 sequence (P43235 115-329): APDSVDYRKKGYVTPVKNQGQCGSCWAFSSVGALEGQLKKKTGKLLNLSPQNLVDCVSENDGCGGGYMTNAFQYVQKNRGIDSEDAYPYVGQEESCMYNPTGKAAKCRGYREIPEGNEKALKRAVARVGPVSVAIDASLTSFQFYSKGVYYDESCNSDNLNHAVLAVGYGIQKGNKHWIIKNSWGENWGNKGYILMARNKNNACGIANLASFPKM
Procedure: (§1) Kinetic measurements are performed in a total reaction volume of 30 μl in 384-well microtiter plates. […] Control reactions in the absence of inhibitor are performed in replicates of 24. The reactions are initiated by adding the substrate, acetyl-lysine-histidine-proline-lysine-amino carbamoyl coumarin, to a final concentration of 40 μM. The rate of substrate hydrolysis is measured by monitoring the increase in fluorescence at an excitation wavelength of 380 nm and an emission wavelength of 450 nm that results from cleavage of the aniline bond in the substrate by the enzyme. The apparent inhibition constants for the compounds are determined from the enzyme progress curves ([…]. Elrod, et al. Anal Biochem 2000, 286(1), 45-50) and are then used to calculate the inhibition constants for competitive inhibitors. Selectivity for cathepsin S in the presence of cathepsin isozymes was determined by the ratio of the cathepsin isozyme inhibition constant of a compound of the present invention to the cathepsin S inhibition constant of the same compound.

Cathepsin S = Cathepsin S (Homo sapiens, UniProt P25774); test: Cathepsin S inhibition, fluorogenic peptide substrate kinetic assay; settings: Cathepsin S inhibition constant; read-out: Ki Cat. S
Cathepsin S, sequence (P25774 115-331, species assumed): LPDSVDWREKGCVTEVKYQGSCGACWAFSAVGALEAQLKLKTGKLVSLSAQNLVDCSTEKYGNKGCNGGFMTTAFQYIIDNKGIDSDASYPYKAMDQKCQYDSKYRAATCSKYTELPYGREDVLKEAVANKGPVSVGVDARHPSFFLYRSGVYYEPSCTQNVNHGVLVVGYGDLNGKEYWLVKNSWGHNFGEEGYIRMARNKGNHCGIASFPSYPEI
Procedure: (§2) The optimal substrate for cathepsin S, acetyl-histidine-proline-valine-lysine-amino carbamoyl coumarin, was identified from screening a combinatorial library of fluorogenic peptide substrates (Harris, J. L., B. J. Backes, et al. Proc Natl Acad Sci USA 2000, 97(14), 7754-9). Kinetic measurements are performed in a total reaction volume of 30 μl in 384-well microtiter plates. […] Control reactions in the absence of inhibitor are performed in replicates of 24. The reactions are initiated by adding the substrate, acetyl-histidine-proline-valine-lysine-amino carbamoyl coumarin, to a final concentration of 50 μM. The rate of substrate hydrolysis is measured by monitoring the increase in fluorescence at an excitation wavelength of 380 nm and an emission wavelength of 450 nm that results from cleavage of the aniline bond in the substrate by the enzyme. The apparent inhibition constants for the compounds are determined from the enzyme progress curves (Kuzmic, P., K. C. Elrod, et al. Anal Biochem 2000, 286(1), 45-50) and are then used to calculate the inhibition constants for competitive inhibitors.

Cathepsin L = Cathepsin L (Homo sapiens, UniProt P07711); test: Cathepsin L inhibition, fluorogenic peptide substrate kinetic assay (selectivity ratio vs cathepsin S); settings: ratio of cathepsin L inhibition constant to cathepsin S inhibition constant
Cathepsin L, sequence (P07711 114-333, species assumed): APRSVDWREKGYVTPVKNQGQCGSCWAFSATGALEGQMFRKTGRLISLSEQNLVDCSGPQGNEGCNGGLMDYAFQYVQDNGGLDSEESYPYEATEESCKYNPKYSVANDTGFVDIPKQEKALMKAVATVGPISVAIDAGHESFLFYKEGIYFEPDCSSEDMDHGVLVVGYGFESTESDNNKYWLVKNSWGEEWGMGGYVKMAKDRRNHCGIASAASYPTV
Procedure: as §2, with “cathepsin L, acetyl-histidine-lysine-phenylalanine-lysine-amino” for “cathepsin S, acetyl-histidine-proline-valine-lysine-amino”, “substrate, acetyl-histidine-lysine-phenylalanine-lysine-amino” for “substrate, acetyl-histidine-proline-valine-lysine-amino”, “of 20” for “of 50”, “curves ([…].” for “curves (Kuzmic, P., K. C.”, “inhibitors. Selectivity for cathepsin S in the presence of cathepsin isozymes was determined by the ratio of the cathepsin isozyme inhibition constant of a compound of the present invention to the cathepsin S inhibition constant of the same compound.” for “inhibitors.”

Cathepsin B = Cathepsin B (Homo sapiens, UniProt P07858); test: Cathepsin B inhibition, fluorogenic peptide substrate kinetic assay (selectivity ratio vs cathepsin S); settings: ratio of cathepsin B inhibition constant to cathepsin S inhibition constant
Procedure: as §1, with “acetyl-histidine-proline-valine-lysine-amino” for “acetyl-lysine-histidine-proline-lysine-amino”, “10” for “40”

Selectivity for Cat. S over Cat. K (Cathepsin K): + (+, >10)
Ki (Cathepsin S): < 100 nM
Selectivity for Cat. S over Cat. L (Cathepsin L): +++ (+++, >1000)
Selectivity for Cat. S over Cat. B (Cathepsin B): +++ (+++, >1000)
Structure (SMILES): CC(C)(C)C[C@H](Nc1nc2ccccc2o1)C(=O)N[C@@H](CCS(C)(=O)=O)CN1CCc2cc(F)ccc21 [Example 5, 2-(S)-(Benzooxazol-2-ylamino)-4,4-dimethyl-pentanoic acid [1-(S)-(5-fluoro-2,3-dihydro-indol-1-ylmethyl)-3-methanesulfonyl-propyl]-amide]
